From patent publication US20260042764A1, “COMPOSITIONS AND METHODS FOR INHIBITION OF KRAS” (TheRas, Inc., priority 2022, published 2026) come the findings set out here.

The subject of the assay is KP-2 cells (KRAS G12R). The assay can be described thus: 3D Cell viability assay in KP-2 cells (Biological Example 6). As to conditions: KP-2 (KRAS G12R) spheroids, 72 hours. Type of assay: cell-based. The procedure:
Biological Example 6: 3D Cell viability assay in AsPC-1, SW1900, HPAC, Capan-2, RKN, H358, HCT116, KP-2, H1573, A549, MKN1, and HT1080 cells
The inhibition of cellular viability as a result of test compound treatment in a spheroid assay was measured using the CellTiter-Glow 3D Cell Viability Assay (Promega).
On Day 1, 1000 cells per well were seeded in 150 μL of complete growth media supplemented with 10% fetal bovine serum (FBS) and incubated at 37° C., in the presence of 5% CO2 in 96-well ultra-low attachment microplates (Corning) for 48 hours undisturbed to allow spheroids to form.
Following spheroid formation, cells were treated with compounds diluted in DMSO at 0.25% final DMSO concentration. Compounds were dosed in a 9-point concentration curve with three-fold dilution between concentrations. Cells were incubated in the presence of compound for 72 hours at 37° C., in the presence of 5% CO2.
Following this incubation period, the kit-provided CTG reagent was allowed to equilibrate for 30 minutes at room temperature, 150 μL of equilibrated CTG reagent was added to each well, and the plate was sealed before shaking at 250 rpm for 10 minutes at room temperature to lyse the cells, 150 μL of lysate per well was transferred to a 96-well plate and luminescence was read on a CLARIOstar plate reader.
Data was imported into the Prism software package (Graphpad) and EC50 values were calculated using the log (inhibitor) vs, response—variable slope (Four parameters) model.
Broadly, the IC50 is the concentration at which inhibition is half-maximal. The molecule `N#Cc1c(N)sc2c(F)ccc(-c3c(C(F)(F)F)cc4c(N5CC6CC(C5)O6)nc(OC[C@@]56CCCN5C[C@H](F)C6)nc4c3F)c12` (single isomer, unassigned) [Compound 275] registered an IC50 of no more than 100 nM. In the case of `CCN(c1nc(OC[C@@]23CCCN2C[C@H](F)C3)nc2c(F)c(-c3ccc(F)c4sc(N)c(C#N)c34)c(C(F)(F)F)cc12)[C@H]1CCN(C(C)=O)C1` [Compound 262] it was 100 to 1000 nM; in that of `CCN(c1nc(OC[C@@]23CCCN2C[C@H](F)C3)nc2c(F)c(-c3ccc(F)c4sc(N)c(C#N)c34)c(C(F)(F)F)cc12)[C@@H]1CCN(C(C)=O)C1` [Compound 268], 100 to 1000 nM; in that of `CCN(c1nc(OC[C@@]23CCCN2C[C@H](F)C3)nc2c(F)c(-c3ccc(F)c4sc(N)c(C#N)c34)c(C(F)(F)F)cc12)[C@H]1CCN(C(=O)C(C)C)C1` [Compound 332], no more than 100 nM. In the case of `N#Cc1cnn2c1CN(c1nc(OC[C@@]34CCCN3C[C@H](F)C4)nc3c(F)c(-c4ccc(F)c5sc(N)c(C#N)c45)c(C(F)(F)F)cc13)CC2` [Compound 392] it was 100 to 1000 nM. For `C[C@@H]1[C@H](N(C)c2nc(OC[C@@]34CCCN3C[C@H](F)C4)nc3c(F)c(-c4ccc(F)c5sc(N)c(C#N)c45)c(C(F)(F)F)cc23)CC(=O)N1C` [Compound 440] the value was no more than 100 nM; for `CCC(=O)N1C[C@@H](N(CC)c2nc(OC[C@@]34CCCN3C[C@H](F)C4)nc3c(F)c(-c4ccc(F)c5sc(N)c(C#N)c45)c(C(F)(F)F)cc23)C[C@H]1C` [Compound 442], 100 to 1000 nM.
